# Test results as given in patent EP1201248A2, “Combination therapy of angiotensin converting enzyme inhibitor, side-effect reduced amount of aldosterone antagonist and diuretic for treatment of cardiovascular disease” (priority 1995, dated 1996).
# How the values were obtained:
# [1] = spironolactone 100 mg/day coadministered with an ACE inhibitor; congestive heart failure; cited from earlier work
# [2] = cited from earlier work
# [3] = Human clinical trial of ACE inhibitor, spironolactone and loop diuretic: adverse events, hyperkalemia incidence, hospitalizations, deaths; details: patients previously at the 50 mg dose
# [4] = Human clinical trial of ACE inhibitor, spironolactone and loop diuretic: weight, vital signs and cardiac assessments; assay type: in vivo, humans; details: for Supine diastolic BP, Mean Change from Baseline to Week 12 / Supine pulse, Mean Change from Baseline to Week 12 / Supine systolic BP, Mean Change from Baseline to Week 12 / Weight, Mean Change from Baseline to Week 12: with stable ACE inhibitor and loop diuretic, spread in parentheses
# Description: Concurrent medication within the past 30 days. • 2. 12-lead ECG • 3. […] Signs and symptoms within the past 30 days.
# All statistical methods were two-sided.
# [5] = spironolactone 50 mg/day to 100 mg/day (average 73 mg/day) and captopril; 90-patient study; cited from earlier work
# [6] = Human clinical trial of ACE inhibitor, spironolactone and loop diuretic: clinical laboratory values and neurohormones
structure (smiles),measurement,setting,value
"CC(=O)S[C@@H]1CC2=CC(=O)CC[C@]2(C)[C@H]2CC[C@@]3(C)[C@@H](CC[C@@]34CCC(=O)O4)[C@H]12 [Spironolactone, 17-hydroxy-7a-mercapto-3-oxo-17a-pregn-4-ene-21-carboxylic acid γ-lactone acetate]",patients in whom treatment was highly effective,[1],13 of 16
same,fibrosis in hypertensive rats,"[2]; cohort treated with spironolactone sub-cutaneously, side-by-side with a captopril cohort",found to prevent fibrosis in the hypertensive-rat cohort
same,fibrosis in animal models,[2]; irrespective of left ventricular hypertrophy and hypertension,shown to prevent fibrosis in animal models
same,deaths within 30 days after the study was completed,[3],Three patients died
same,"mean systolic and diastolic blood pressure, change","[4]; 25 mg, 50 mg and 75 mg groups, all visits, standing and supine",decreases in mean systolic and diastolic blood pressure
same,"body weight, change from baseline","[4]; 75 mg dose group, Day 9 and Week 4, not observed at later visits",more weight loss than other patients
same,"sodium retention score, dose response","[4]; Day 9 (p = 0.019), not seen at later visits (p >0.20)",higher doses showing more reduction in sodium retention score
same,changes in loop diuretic therapy,"[4]; Week 8 (p = 0.004), compared to the placebo group, not observed at Week 12",more patients on the higher doses of spironolactone had decreases in the loop diuretic dose
same,"Supine diastolic BP, Mean Change from Baseline to Week 12",[4]; spironolactone 25 mg/d,-2.74 ( 9.57)
same,"Supine pulse, Mean Change from Baseline to Week 12",[4]; spironolactone 25 mg/d,-1.40(10.00) BPM
same,"Supine systolic BP, Mean Change from Baseline to Week 12",[4]; spironolactone 25 mg/d,-4.46(13.97)
same,"Weight, Mean Change from Baseline to Week 12",[4]; spironolactone 25 mg/d,-0.16 (3.02)
same,"Supine diastolic BP, Mean Change from Baseline to Week 12",[4]; spironolactone 50 mg/d,-5.11(11.11)
same,"Supine pulse, Mean Change from Baseline to Week 12",[4]; spironolactone 50 mg/d,-3.21(11.27) BPM
same,"Supine systolic BP, Mean Change from Baseline to Week 12",[4]; spironolactone 50 mg/d,-7.04(15.83)
same,"Weight, Mean Change from Baseline to Week 12",[4]; spironolactone 50 mg/d,0.62 (2.05)
same,"Supine diastolic BP, Mean Change from Baseline to Week 12",[4]; spironolactone 75 mg/d,-5.91 (9.05)
same,"Supine pulse, Mean Change from Baseline to Week 12",[4]; spironolactone 75 mg/d,-1.07(13.79) BPM
same,"Supine systolic BP, Mean Change from Baseline to Week 12",[4]; spironolactone 75 mg/d,-5.68(15.62)
same,"Weight, Mean Change from Baseline to Week 12",[4]; spironolactone 75 mg/d,-0.81 (2.70)
same,"NYHA Class, improvement",[4]; spironolactone groups vs placebo group,the difference was not statistically significant
same,control of refractory CHF,[5],effective to control refractory CHF without serious incidents of hyperkalemia
same,"PRA, change from baseline, dose-response","[6]; Day 9, Week 4 and Week 12 (P ≤0.001)",greater increases in PRA
same,"Urinary aldosterone excretion, change from baseline, dose response",[6]; Week 12 (p = 0.002),Greater increases were seen at higher doses
same,"N-Terminal Atrial Natriuretic Factor (ANF), change from baseline","[6]; all active treatments, all treatment visits",decreases from baseline at all treatment visits
same,"serum potassium, change from baseline, dose-response",[6]; all treatment period visits (p <0.001),larger increases in potassium
